The target in assay [1] is T1, Carbonic anhydrase 2 (Homo sapiens, UniProt P00918).
Description: Binding affinity to human carbonic anhydrase 2 assessed as inhibition constant incubated for 15 mins by phenol red based stopped-flow CO2 hydration assay
Assay [2] concerns the target Carbonic anhydrase 12 (Homo sapiens, UniProt O43570).
Description: Binding affinity to human carbonic anhydrase 12 assessed as inhibition constant incubated for 15 mins by phenol red based stopped-flow CO2 hydration assay
The target of assay [3] is T1, Carbonic anhydrase 2. This is another data set of the same source.
Description: Binding affinity to human recombinant carbonic anhydrase 2 assessed as inhibition constant incubated for 15 mins by phenol red based stopped-flow CO2 hydration assay
Assay [4] has as its system MCF7. Kind of assay: Antiproliferative activity against human MCF7 cells assessed as inhibition of cell growth under normoxia condition by MTT colorimetric assay. A general note: Tetrazolium dyes change colour on reduction, which living cells bring about.
Assay [5] deals with Carbonic anhydrase 9 (Homo sapiens, UniProt Q16790).
Description: Binding affinity to human carbonic anhydrase 9 assessed as inhibition constant incubated for 15 mins by phenol red based stopped-flow CO2 hydration assay
In assay [6] the test system is MCF7. Briefly: Antiproliferative activity against human MCF7 cells assessed as inhibition of cell growth under hypoxia condition by MTT colorimetric assay.
Assay [7] deals with Carbonic anhydrase 1 (Homo sapiens, UniProt P00915).
Chain of Carbonic anhydrase 1 (P00915 whole entry): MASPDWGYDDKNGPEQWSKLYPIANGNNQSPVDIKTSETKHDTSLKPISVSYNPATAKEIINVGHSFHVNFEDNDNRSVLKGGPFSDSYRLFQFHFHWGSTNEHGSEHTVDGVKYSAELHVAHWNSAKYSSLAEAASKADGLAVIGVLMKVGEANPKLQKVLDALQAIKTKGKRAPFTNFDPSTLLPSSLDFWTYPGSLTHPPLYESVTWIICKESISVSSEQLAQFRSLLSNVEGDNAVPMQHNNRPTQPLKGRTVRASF
Description: Binding affinity to human carbonic anhydrase 1 assessed as inhibition constant incubated for 15 mins by phenol red based stopped-flow CO2 hydration assay

Chain of Carbonic anhydrase 12 (O43570 whole entry): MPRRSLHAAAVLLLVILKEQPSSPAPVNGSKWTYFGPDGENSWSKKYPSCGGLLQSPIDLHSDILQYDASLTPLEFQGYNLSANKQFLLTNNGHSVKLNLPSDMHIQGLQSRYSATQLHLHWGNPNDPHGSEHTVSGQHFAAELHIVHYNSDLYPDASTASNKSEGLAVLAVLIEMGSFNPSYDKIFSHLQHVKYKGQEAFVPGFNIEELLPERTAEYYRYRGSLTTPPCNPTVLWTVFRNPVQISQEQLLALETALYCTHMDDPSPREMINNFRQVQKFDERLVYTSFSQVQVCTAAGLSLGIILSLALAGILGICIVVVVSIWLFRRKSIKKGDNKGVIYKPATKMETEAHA

Broadly, the Ki is the equilibrium dissociation constant of an inhibitor or competing ligand from its target. Low values mean higher affinity, high ones lower affinity. Consider `NS(=O)(=O)c1ccc(/N=C2\NC(=O)/C(=C\c3ccccc3)S2)cc1`, for which the Ki in assay [1] came to 0.0905 µM; in assay [2], 0.12 µM.

On to `CCN1C(=O)/C(=C2\C(=O)Nc3ccccc32)S/C1=N/c1ccc(S(N)(=O)=O)cc1`, for which the inhibition constant Ki in assay [1] stood at 0.105 µM; in assay [2], 0.0091 µM.

In assay [2], `CN1C(=O)/C(=C\c2ccc(Cl)cc2)S/C1=N/c1ccc(S(N)(=O)=O)cc1` displayed an inhibition constant (Ki) of 0.0488 µM.

With `COc1ccc(/C=C2/S/C(=N/c3ccc(S(N)(=O)=O)cc3)N(C)C2=O)cc1`, the Ki in assay [1] was determined as 0.0546 µM; in assay [2], 0.0666 µM.

On to `NS(=O)(=O)c1ccc(N2C(=O)CS/C2=N\C(=O)c2ccccc2)cc1`, for which the inhibitory constant (Ki) in assay [3] was 0.00041 µM.

Usually IC50 stands for the midpoint of a concentration-inhibition curve. Consider `CCN1C(=O)/C(=C\c2ccc(F)cc2)S/C1=N/c1ccc(S(N)(=O)=O)cc1`, for which the IC50 was determined as 21.6 µM in assay [4] and 34 µM in assay [6]. For the same compound, the Ki worked out at 0.0339 µM in assay [5], 0.085 µM in assay [1], 0.011 µM in assay [2] and 4.42 µM in assay [7].

For `CCN1C(=O)/C(=C\c2ccccc2)S/C1=N/c1ccc(S(N)(=O)=O)cc1`, the Ki in assay [1] worked out at 0.0772 µM; in assay [2], 0.0963 µM.

`CCN1C(=O)/C(=C\c2ccc(Cl)cc2)S/C1=N/c1ccc(S(N)(=O)=O)cc1`: the Ki in assay [1] was 0.0305 µM; in assay [2] it was 0.0363 µM.

With `CN1C(=O)/C(=C\c2ccc(F)cc2)S/C1=N/c1ccc(S(N)(=O)=O)cc1`, the inhibitory constant (Ki) in assay [1] is 0.0307 µM; in assay [2], 0.037 µM.

For `CN1C(=O)/C(=C\c2ccccc2)S/C1=N/c1ccc(S(N)(=O)=O)cc1`, the Ki in assay [1] came to 0.0445 µM; in assay [2], 0.0745 µM.

For the compound `COc1ccc(/C=C2/S/C(=N/c3ccc(S(N)(=O)=O)cc3)NC2=O)cc1`, the Ki in assay [1] is 0.0243 µM; in assay [2] it was 0.0776 µM.

`NS(=O)(=O)c1ccc(/N=C2\NC(=O)/C(=C3\C(=O)Nc4ccccc43)S2)cc1`: the inhibitory constant (Ki) in assay [5] amounted to 0.047 µM; in assay [1] it was 0.023 µM; in assay [2] it was 0.0335 µM; in assay [7], 0.631 µM.

For `NS(=O)(=O)c1ccc(/N=C2\NC(=O)/C(=C\c3ccc(F)cc3)S2)cc1`, the inhibition constant Ki in assay [1] was 0.007 µM.

In turn, `NS(=O)(=O)c1ccc(/N=C2\NC(=O)/C(=C\c3ccc(Cl)cc3)S2)cc1` returned an inhibition constant Ki in assay [1] of 0.0957 µM.

Regarding `CCN1C(=O)/C(=C\c2ccc(OC)cc2)S/C1=N/c1ccc(S(N)(=O)=O)cc1`, in assay [2], the inhibition constant (Ki) was 0.0566 µM.

(Values after ChEMBL document CHEMBL5500361, “Probing benzenesulfonamide-thiazolidinone hybrids as multitarget directed ligands for efficient control of type 2 diabetes mellitus through targeting the enzymes: α-glucosidase and carbonic anhydrase II” (Eur J Med Chem, 2024).)
